Results from PMC1940322, “The Effect of PPARα, PPARδ, PPARγ, and PPARpan Agonists on Body Weight, Body Mass, and Serum Lipid Profiles in Diet-Induced Obese AKR/J Mice” (PPAR Research, 2007).
pEC50: −log10 of the molar value.

Legend:
murine PPARδ = molecular target: T1, murine PPARδ (Mus musculus, UniProt P35396); test: PPAR-GAL4 transient transfection transactivation assay (SPAP reporter) in CV-1 cells, PPARδ; format: cell-based
T1 construct: expressed in transfected cells; host or cells: CV-1 cells
T1 sequence (P35396 210-438 limits assumed): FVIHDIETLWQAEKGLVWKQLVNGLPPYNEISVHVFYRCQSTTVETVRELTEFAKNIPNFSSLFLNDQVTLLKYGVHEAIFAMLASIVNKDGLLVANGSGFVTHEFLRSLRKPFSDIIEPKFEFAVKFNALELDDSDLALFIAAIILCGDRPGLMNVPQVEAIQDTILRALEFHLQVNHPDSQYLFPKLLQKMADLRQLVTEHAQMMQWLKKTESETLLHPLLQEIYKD
Method: (§1) The functional potency of selected ligands was evaluated using a transient transfection assay in CV-1 cells. The ligand binding domains for murine PPARα, PPARδ, and PPARγ were fused to the yeast transcription factor GAL4 DNA binding domain as a chimera. CV-1 cells were propagated and transiently transfected with expression vectors for the respective PPAR chimera as previously described.

[1] = test system: diet-induced obese (DIO) AKR/J mouse; test: Body weight, body composition (qMR) and liver weight in diet-induced obese AKR/J mice; format: in vivo; settings: for BW day 28 / effect on FM (in words) / effect on BW (in words) / Fat mass day 28 / Lean mass day 28 / Liver weight / effect on LM (in words) / increase in liver weight: 28 days; for effect on FM (in words) / effect on LM (in words): doses as in methods; for BW day 0: baseline before treatment; for effect on BW (in words): oral, GW9578 1, GW0742 30, GW7845 3, RIM 10 and 30 mg/kg, PPARpan agonists; for Fat mass day 28 / Lean mass day 28: qMR; for Liver weight: terminal collection; for increase in liver weight: PPARα agonist 1 mg/kg or PPARδ agonist 30 mg/kg alone
Method: The effects of monotherapy with selective PPAR agonists, combination therapy with PPARα and PPARδ, and treatment with PPARpan agonists were evaluated in four experiments in diet-induced obese (DIO) AKR/J mouse. The AKR/J mouse is a polyoma-susceptible strain originally utilized to study accelerated tumor development. This strain becomes obese and hyperinsulemic when fed a high fat diet. Age-matched, male AKR/J mice were allowed ad libitum access to Research Diet D12331 (Research Diet, Brunswick, NJ) at the Jackson Laboratories (Bar Harbor, ME) beginning at 6 weeks of age. The diet has an energy density of 5.56 kcal/g (58% kcal from fat; 26% kcal from carbohydrates, and 16% kcal from protein). The animals were allowed to become obese, achieving BW >40 grams before shipping to GlaxoSmithKline laboratory animal facility at 13 weeks of age. The mice were housed 4 per cage in standard shoebox cages and were fed the high fat diet until they reached approximately 50 grams. Age-matched lean control animals obtained from Jackson Laboratories were fed a diet of normal chow (3.04 kcal/g energy density, 12% kcal from fat, LabDiet 5001, St. Louis, MO) and used for comparison.
At the beginning of each study, the animals were weighed and body composition obtained using an EchoMRI-100 quantitative magnetic resonance (qMR, EchoMRI, Houston, TX) whole body composition analyzer. […] 16 lean control mice on standard chow were used as reference. All mice were dosed orally with vehicle (0.5% methylcellulose and 0.1% Tween 80, 10 mL/kg) for six days prior to the beginning of dosing for acclimation to handling and treatment before drug treatment was initiated.
In each experiment, BW of each animal was measured and recorded three times weekly throughout the treatment period. Body mass was obtained weekly on days 0, 7, 13, 20, and 27 of treatment. The effects of selective PPARα, δ, and γ agonists on food consumption were also assessed. Food consumption is expressed as total energy consumed (kcal) over a 24-period and as cumulative consumption over the course of the experiment.
On the final day of each experiment, a terminal blood sample (800–1000 μL) was obtained via cardiac puncture under isoflurane anesthesia. Whole blood was placed in a Terumo Capiject blood collection tube (Terumo Medical Corp., Elkton, Md, USA), allowed to sit at room temperature for 20 minutes then centrifuged to obtain serum. Serum levels of glucose, triglycerides, glycerol, nonesterified fatty acids, total cholesterol, the high-density lipoprotein cholesterol, and β-hydroxybutyrate were determined in all mice using an Olympus AU640 clinical chemistry immuno-analyzer (Olympus America Inc., Melville, NY, USA). In addition, liver weights were obtained following the terminal blood sample on the final day of the study and samples were used to determine liver fatty acid oxidation activity.
Experiment 1 was designed to study the effects of a selective PPARα agonist and PPARδ agonist as mono and combination therapy. 48 mice were sorted into 6 groups and blocked such that initial BW and body composition were not different between groups. […] Two additional groups of mice were dosed for the first 14 days with either a PPARα agonist or a PPARδ agonist alone. At day 15, the PPARδ agonist was added to the treatment regimen of animals dosed with PPARα, and the PPARα agonist was added to the dosing material of animals previously dosed with PPARδ alone. The sixth group was dosed with both the PPARα and PPARδ agonists for the entire 28-day period. BW and food consumption were assessed 3 times per week and body composition was measured weekly.
In Experiment 2, 32 mice were sorted into 4 groups (n = 8/group) and dosed with vehicle and a selective PPARγ agonist (GW7845, 3 mg/kg) for 28 days. Rimonabant (RIM, 10 or 30 mg/kg, q.d.), a CB1 receptor antagonist, was used as a positive control for weight loss. […]

murine PPARγ = molecular target: T2, murine PPARγ (Mus musculus, UniProt P37238); test: PPAR-GAL4 transient transfection transactivation assay (SPAP reporter) in CV-1 cells, PPARγ; format: cell-based; settings: for pEC50: CV-1 cells, GAL4 chimera, read-out: mPPARγ, murine receptor activation EC50; for mPPARγ %Max: maximal activation vs reference comparator
T2 construct: expressed in transfected cells; host or cells: CV-1 cells
T2 sequence (P37238 238-503 limits assumed): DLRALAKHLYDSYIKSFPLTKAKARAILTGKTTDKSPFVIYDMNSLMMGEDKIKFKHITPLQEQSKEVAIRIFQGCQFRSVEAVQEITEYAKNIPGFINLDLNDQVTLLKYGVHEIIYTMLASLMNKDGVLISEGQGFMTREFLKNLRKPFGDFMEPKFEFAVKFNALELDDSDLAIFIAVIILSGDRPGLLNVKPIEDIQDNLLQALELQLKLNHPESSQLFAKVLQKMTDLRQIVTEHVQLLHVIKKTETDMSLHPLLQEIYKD
Method: as §1

Structure (SMILES): COC(=O)c1ccccc1N[C@@H](Cc1ccc(OCCc2nc(-c3ccccc3)oc2C)cc1)C(=O)O [GW7845]
- pEC50 (murine PPARδ; CV-1 cells, GAL4 chimera, read-out: mPPARδ, murine receptor activation EC50): 5.00
- mPPARδ %Max (murine PPARδ; maximal activation vs reference comparator): 12%
- BW day 28 ([1]; 3 mg/kg oral): 54.6 ± 1.7 grams
- effect on FM (in words) [1]: significant increase in FM
- BW day 0 ([1]; group dosed 3 mg/kg oral): 50.9 ± 1.2 grams
- effect on BW (in words) [1]: steady and consistent increase in BW
- Fat mass day 28 ([1]; 3 mg/kg oral): 23.5 ± 1.3 grams
- Lean mass day 28 ([1]; 3 mg/kg oral): 28.7 ± 0.6 grams
- Liver weight ([1]; 3 mg/kg oral): 2.0 ± 0.1 grams
- pEC50 (murine PPARγ): 8.92
- mPPARγ %Max (murine PPARγ): 247%
- selectivity for PPARγ over the other murine PPAR subtypes (murine PPARγ; murine receptors): > 1000 fold

Structure (SMILES): CCCCCCCN(CCc1ccc(SC(C)(C)C(=O)O)cc1)C(=O)Nc1ccc(F)cc1F [GW9578]
- BW day 28 ([1]; 1 mg/kg oral): 51.3 ± 1.6 grams
- effect on FM (in words) [1]: slight decrease in FM
- effect on LM (in words) [1]: LM was unaffected
- increase in liver weight [1]: ~1 gram
- BW day 0 ([1]; group dosed 1 mg/kg oral): 52.1 ± 1.1 grams
- effect on BW (in words) [1]: neither compound induced a sustained decrease in BW
- Fat mass day 28 ([1]; 1 mg/kg oral): 18.4 ± 0.9 grams
- Lean mass day 28 ([1]; 1 mg/kg oral): 30.9 ± 0.8 grams
- Liver weight ([1]; 1 mg/kg oral): 2.6 ± 0.1 grams
- pEC50 (murine PPARγ): 5.55
- mPPARγ %Max (murine PPARγ): 96%

Structure (SMILES): Cc1cc(SCc2sc(-c3ccc(C(F)(F)F)c(F)c3)nc2C)ccc1OCC(=O)O [GW0742]
- BW day 28 ([1]; 30 mg/kg oral): 50.2 ± 1.2 grams
- effect on FM (in words) [1]: slight decrease in FM
- effect on LM (in words) [1]: LM was unaffected
- increase in liver weight [1]: ~1 gram
- BW day 0 ([1]; group dosed 30 mg/kg oral): 51.6 ± 1.1 grams
- effect on BW (in words) [1]: neither compound induced a sustained decrease in BW
- Fat mass day 28 ([1]; 30 mg/kg oral): 18.4 ± 0.7 grams
- Lean mass day 28 ([1]; 30 mg/kg oral): 29.7 ± 0.7 grams
- Liver weight ([1]; 30 mg/kg oral): 3.2 ± 0.1 grams
- pEC50 (murine PPARγ): 5.00
- mPPARγ %Max (murine PPARγ): 67%
